Measured values taken from patent publication US20220110916A1, “Antioxidant and Use Thereof” (Bioradical Research Institute Corp., priority 2019, published 2022).

Experiments:
[1] = system: rat auricular subcutaneous blood vessel; assay: Vasodilation of rat auricular subcutaneous blood vessel after intravenous administration; format: in vivo
From the text: Oxidative stress caused by reactive oxygen species is known to reduce NO production in vascular endothelial cells, resulting in vasoconstriction and decreased blood flow. Therefore, using vasodilation as an indicator, it was examined whether the antioxidant of the present invention scavenges reactive oxygen species in vivo.
Eight-week old or older female rats (Wistar, body weight: approximately 200 g, n=1) were anesthetized by subcutaneous administration of urethane so as to be […] body weight. The hair of the auricles of the rats was then removed and the rats were fixed on a fixing table. […]
BisEP-C3 was dissolved in a saline solution to achieve a concentration of 3 mg/ml. […] Then, the hemodynamic course of the rat auricular subcutaneous blood vessel was photographed and recorded using a microscope at a predetermined period of time (30, 60, 120 or 180 minutes) before and after the administration.
The obtained images were classified into three blood vessel thicknesses (thick: 35-45 μm, medium: 15-20 μm, thin: 7-9 μm) based on the diameter of the blood vessel before administration. […] Further, for each selected site, the relative blood vessel diameter was calculated after the measurement of the blood vessel diameter, with the blood vessel diameter before administration being a reference (1). […]

[2] = system: mesentery blood vessels of rats given lipopolysaccharide; assay: LPS-induced mesenteric bleeding and leukocyte rolling in rats; format: in vivo, rat
From the text: Administration of lipopolysaccharide to the mesentery vicinity blood vessels generates reactive oxygen species (ROS), causing vascular disorder and bleeding. Therefore, using the bleeding area as an indicator, it was examined whether the antioxidant of the present invention scavenges ROS in vivo.
Eight-week old or older female rats (Wistar, body weight: approximately 200 g, n=1) were anesthetized by subcutaneous administration of urethane (1.75 g/kg body weight). The rats were then opened and fixed on a fixing table in such a manner that the mesentery of the rats was observable. After the fixing, the fixing table was placed under a microscope (Nikon OPTIphoto, produced by Nikon Corporation) so that the mesentery could be observed. In addition, a catheter was placed in the groin vein of the rat.
1 μg/ml of lipopolysaccharide ((LPS), produced by Sigma-Aldrich Co., Ltd.) derived from Pseudomonas aeruginosa (ATCC27316) was added dropwise once (20 μL, 20 ng/sight) and allowed to stand for 30 minutes. […] In the obtained photograph, the area of the region where bleeding occurred (bleeding area) was detected based on the number of pixels, and then the proportion of the area (bleeding area proportion) occupied per visual field was calculated. […]

Structure (SMILES): CCN1N=C(C)/C(=C\C=C\c2c(C)nn(CC)c2O)C1=O (racemic) [BisEp-C3, 2,4-dihydro-4-[3-(1-ethyl-5-hydroxy-3-methyl-1H-pyrazol-4-yl)-2-propen-1-ylidene]-2-ethyl-5-methyl-3H-pyrazol-3-one]
- relative value of the blood vessel diameter ([1]; 3 mg/kg body weight intravenously, 30, 60, 120 or 180 minutes, vs saline control, n=1, FIG. 10): dilated at any time after administration as compared to the control
- severity of dilatation of the blood vessel diameter by blood vessel size ([1]; 3 mg/kg intravenously, thick 35-45 μm, medium 15-20 μm, thin 7-9 μm): remarkably observed in the smaller blood vessels
- bleeding area / bleeding area proportion ([2]; rat mesentery, LPS 20 ng/sight, 1 mg/kg intravenously then 1 mg/kg per hour, up to 180 minutes, n=1, FIGS. 12 and 13): no bleeding was observed after the LPS administration
- rolling phenomena of leukocytes in the blood vessel ([2]; rat, after LPS instillation, compared to the control): a large number of rolling phenomena of leukocytes were observed
